How the values were obtained:
Format in all cases: cell-based, human
KG1a AML cell line = assay: Sensitivity of KG1a AML cell line (Cell Titer Glo luminescence); details: for EC50: Homo sapiens, KG-1a, 48 h, 2 days treatment, luminescence, read-out: EC50 on KG1a AML cells; for mean survival of KG1a AML cells: Venetoclax at 5 μM and/or 5-Azacytidine at 10 μM, 2 days
Procedure: First, to assess the sensitivity of KG1a AML cell line to Venetoclax and 5-Azacytidine treatment in vitro, cells were treated with increasing concentrations of Venetoclax (0-5 μM), 5-Azacytidine (0-10 μM) or the combination for 2 days in cell culture medium (alpha-MEM+Glutamax supplemented with 20% Fetal Bovine Serum (FBS) and 1 mM Sodium Pyruvate). On day 2, cells were centrifuged at 1800 rpm for 5 minutes and the supernatant discarded. Cells were lysed with Cell Titer Glo reagent (Promega), and ATP amount was monitored as a measure of living cells using luminescence.

Vγ9Vδ2 T cells [1] = assay: Proliferation of Vγ9Vδ2 T cells in HD-PBMC (CellTrace Violet); details: day 4, ICT01 1 μg/mL; for ICT01 and IL2-induced proliferation of Vγ9Vδ2 T cells: 50 IU/mL IL2; for increase of ICT01-induced proliferation of Vγ9Vδ2 T cells: absence of IL2
Procedure: (§1) Finally, freshly isolated human PBMC from healthy donors (HD, n=6) were labeled with CellTrace Violet stain (CTV, Invitrogen) to determine cell proliferation upon treatment with ICT01 or its isotype control (hIgG1S) used at 1 μg/mL in the presence or absence of increasing concentrations of Venetoclax (0-0.1 μM), 5-Azacytidine (0-0.4 μM) or the combination in PBMC medium (RPMI 1640 Medium supplemented with 10% FBS, 1% Penicillin/Streptomycin and 1 mM Sodium Pyruvate). Half of the cells were additionally treated with 50 IU/mL IL2. Cells were harvested on day 4, centrifuged at 1800 rpm for 5 minutes and then incubated 10 minutes at RT with 25 μl of FcR blocking reagent (Miltenyi Biotec) before adding 25 μL of the following antibody mix prepared in PBS+2% FBS+2 mM EDTA (FACS buffer): anti-CD4-BV650, CD56-FITC, Vδ2-PE, CD3-PE-CF594 and CD8-A700 antibodies for the identification of immune subsets, and a viability marker (LIVE/DEAD™ Fixable Dead Cell Stain) was added to distinguish live from dead cells. Cells were incubated 20 minutes at 4° C. and washed 2 times in FACS buffer before flow cytometry analysis.

Vγ9Vδ2 T cells [2] = assay: Phenotypic activation of Vγ9Vδ2 T cells in HD-PBMC (CD69/CD25 expression, flow cytometry); details: for activation of Vγ9Vδ2 T cells by ICT01 (CD25 expression): HD-PBMC treated one day with Venetoclax (0-0.1 μM), 5-Azacytidine (0-0.4 μM) prior to ICT01 for two days; for effect on the ICT01-induced upregulation of CD25 by Vγ9Vδ2 T cells: day 4, together with ICT01 1 μg/mL, Venetoclax 0-0.1 μM, 5-Azacytidine 0-0.4 μM
Procedure: Peripheral Blood Mononuclear Cells (PBMC) were isolated by Ficoll density gradient centrifugation of peripheral blood (EDTA-buffy coats) from healthy donors (HD, n=4-6), cultured in PBMC medium (RPMI 1640 Medium supplemented with 10% Fetal Bovine Serum (FBS), 1% Penicillin/Streptomycin and 1 mM Sodium Pyruvate) and treated with ICT01 or its isotype control (hIgG1S) used at 1 μg/mL in the presence or absence of increasing concentrations of Venetoclax (0-0.1 μM), 5-Azacytidine (0-0.4 μM) or the combination, or ABT-737 (0-1.875 μM), Navitoclax (0-1.875 μM) or MIK665 (0-1.875 μM). Cells were harvested on day 2, centrifuged at 1800 rpm for 5 minutes and then incubated 10 minutes at room temperature (RT) with 25 μl of FcR blocking reagent (Miltenyi Biotec) before adding 25 μL of the following antibody mix prepared in PBS+2% FBS+2 mM EDTA (FACS buffer): anti-CD4-BUV395, CD56-BV421, Vd2-PE, CD3-PE-CF594 and CD8-A700 antibodies for the identification of immune subsets, anti-CD25-BV650 and CD69-APC antibodies were added to monitor activation status of Vγ9Vδ2 T cells, and a viability marker (LIVE/DEAD™ Fixable Dead Cell Stain) was added to distinguish live from dead cells. Cells were incubated 20 minutes at room temperature (RT) and washed 2 times with FACS buffer. A Caspase3/7 Green detection reagent (ThermoFisher) was added to determine apoptosis and cells were incubated for 30 minutes at RT before flow cytometry analysis.
as §1, with “ICT01-induced phenotypic activation of Vγ9Vδ2 T cells is indicated by the upregulation of CD25. Therefore,” for “Finally, freshly isolated”, “cultured” for “labeled with CellTrace Violet stain (CTV, Invitrogen) to determine cell proliferation upon treatment”, “Pyruvate).” for “Pyruvate). Half of the cells were additionally treated with 50 IU/mL IL2.”, “room temperature (RT)” for “RT”, “Vd2-PE,” for “Vδ2-PE,”, “subsets, an anti-CD25-BV650 antibody was added to monitor activation status,” for “subsets,”
In a similar experiment, freshly isolated healthy donor-derived PBMC were treated with increasing concentrations of Venetoclax (0-0.1 μM), 5-Azacytidine (0-0.4 μM) or the combination for one day prior to stimulation with ICT01 or its isotype control hIgG1S for two days. Again, activation of Vγ9Vδ2T cells by ICT01 was unaffected by Venetoclax and 5-Azacytidine treatment, as indicated by the similar induction of CD25 expression in all conditions tested (Figure b).

Nc1ncn([C@@H]2O[C@H](CO)[C@@H](O)[C@H]2O)c(=O)n1 [5-Azacytidine, 4-amino-1-[(2R,3R,4S,5R)3,4-dihydroxy-5-(hydroxymethyl)oxolan-2-yl]-1,3,5-triazin-2-one]
EC50 (KG1a AML cell line): 4.72 µM | mean survival of KG1a AML cells (KG1a AML cell line): 47.2% | ICT01 and IL2-induced proliferation of Vγ9Vδ2 T cells (Vγ9Vδ2 T cells [1]): unaffected | increase of ICT01-induced proliferation of Vγ9Vδ2 T cells (Vγ9Vδ2 T cells [1]): not observed | activation of Vγ9Vδ2 T cells by ICT01 (CD25 expression) (Vγ9Vδ2 T cells [2]): unaffected | effect on the ICT01-induced upregulation of CD25 by Vγ9Vδ2 T cells (Vγ9Vδ2 T cells [2]; HD-PBMC): no effect

CC1(C)CCC(CN2CCN(c3ccc(C(=O)NS(=O)(=O)c4ccc(NCC5CCOCC5)c([N+](=O)[O-])c4)c(Oc4cnc5[nH]ccc5c4)c3)CC2)=C(c2ccc(Cl)cc2)C1 [Venetoclax, 4-[4-[[2-(4-chlorophenyl)-4,4-dimethylcyclohexen-1-yl]methyl]piperazin-1-yl]-N-[3-nitro-4-(oxan-4-ylmethylamino)phenyl]sulfonyl-2-(1H-pyrrolo[2,3-b]pyridin-5-yloxy)benzamide]
EC50 (KG1a AML cell line): 1.82 µM | mean survival of KG1a AML cells (KG1a AML cell line): 20.2% | ICT01 and IL2-induced proliferation of Vγ9Vδ2 T cells (Vγ9Vδ2 T cells [1]): unaffected | increase of ICT01-induced proliferation of Vγ9Vδ2 T cells (Vγ9Vδ2 T cells [1]): ~ 10% | activation of Vγ9Vδ2 T cells by ICT01 (CD25 expression) (Vγ9Vδ2 T cells [2]): unaffected | effect on the ICT01-induced upregulation of CD25 by Vγ9Vδ2 T cells (Vγ9Vδ2 T cells [2]; HD-PBMC): no effect

ICT01: humanized BTN3A activating antibody of mAb 7.2, heavy chain SEQ ID NO: 4, light chain SEQ ID NO: 6, silent IgG1 L247F/L248E/P350S
activation of Vγ9Vδ2 T cells: expression of CD69 and CD25 (Vγ9Vδ2 T cells [2]; HD-PBMC, 2 days, ICT01 1 μg/mL, compared to hIgG1S): increased expression of CD69 and CD25

Reference: US20260256909A1, “COMBINATION OF A BTN3A ACTIVATING ANTIBODY, A BCL2 INHIBITOR AND HYPOMETHYLATING AGENT FOR USE IN TREATING CANCER” (Imcheck Therapeutics, priority 2022, published 2026)
